{"source": "ChEMBL document CHEMBL5335813", "about": "“Gausemycin Antibiotic Family Acts via Ca2+-Dependent Membrane Targeting” (2024)", "key": {"Lipid bilayer [1]": {"system": "Lipid bilayer", "experiment": "Induction of pore formation in anionic TMoCL lipid bilayer membrane model assessed as pore-forming threshold concentration"}, "Staphylococcus aureus [2]": {"system": "Staphylococcus aureus", "experiment": "Antimicrobial activity against Staphylococcus aureus ATCC 29213 assessed as microbial growth inhibition in presence of <=200 mM of (H2PO4)-/(HPO4)2- by susceptibility testing method", "format": "functional, organism-based"}, "Lipid bilayer [3]": {"system": "Lipid bilayer", "experiment": "Induction of pore formation in anionic TMoCL lipid bilayer membrane model at 1 to 100 ug/ml", "settings": "dose 1-100 µg/ml"}, "Staphylococcus aureus [4]": {"system": "Staphylococcus aureus", "experiment": "Antimicrobial activity against Staphylococcus aureus ATCC 29213 assessed as microbial growth inhibition at pH 7 by susceptibility testing method", "format": "functional"}, "Lipid bilayer [5]": {"system": "Lipid bilayer", "experiment": "Induction of pore formation in zwitter-ionic DOPC lipid bilayer membrane model at 1 to 100 ug/ml", "settings": "dose 1-100 µg/ml"}, "Bacillus cereus": {"system": "Bacillus cereus", "experiment": "Antimicrobial activity against Bacillus cereus X1 assessed as microbial growth inhibition in presence of Ca2+ by susceptibility testing method", "format": "functional, organism-based"}, "Escherichia coli [6]": {"system": "Escherichia coli", "experiment": "Antimicrobial activity against Escherichia coli BL21 (DE3) assessed as microbial growth inhibition in presence of Ca2+ by susceptibility testing method", "format": "functional, organism-based"}, "Staphylococcus aureus [7]": {"system": "Staphylococcus aureus", "experiment": "Antimicrobial activity against Staphylococcus aureus ATCC 29213 assessed as microbial growth inhibition in presence of (CH3CO2)- by susceptibility testing method", "format": "functional"}, "Lipid bilayer [8]": {"system": "Lipid bilayer", "experiment": "Induction of pore formation in anionic DPhPG lipid bilayer membrane model at 1 to 100 ug/ml in presence of CaCl2", "settings": "dose 1-100 µg/ml"}, "Staphylococcus aureus [9]": {"system": "Staphylococcus aureus", "experiment": "Antimicrobial activity against Staphylococcus aureus ATCC 29213 assessed as microbial growth inhibition by susceptibility testing method", "format": "functional"}, "Lipid bilayer [10]": {"system": "Lipid bilayer", "experiment": "Induction of pore formation in anionic DPhPG lipid bilayer membrane model at 1 to 100 ug/ml", "settings": "dose 1-100 µg/ml"}, "Staphylococcus aureus [11]": {"system": "Staphylococcus aureus", "experiment": "Antimicrobial activity against Staphylococcus aureus ATCC 29213 assessed as microbial growth inhibition in presence of Mn2+ by susceptibility testing method", "format": "functional"}, "Lipid bilayer [12]": {"system": "Lipid bilayer", "experiment": "Induction of pore formation in cationic DOPC/DOTAP lipid bilayer membrane model at 1 to 100 ug/ml in presence of CaCl2", "settings": "dose 1-100 µg/ml"}, "Staphylococcus aureus [13]": {"system": "Staphylococcus aureus", "experiment": "Antimicrobial activity against Staphylococcus aureus ATCC 29213 assessed as microbial growth inhibition at pH 10 by susceptibility testing method", "format": "functional"}, "Staphylococcus aureus [14]": {"system": "Staphylococcus aureus", "experiment": "Antimicrobial activity against Staphylococcus aureus ATCC 29213 assessed as microbial growth inhibition in presence of K+ by susceptibility testing method", "format": "functional"}, "Staphylococcus aureus [15]": {"system": "Staphylococcus aureus", "experiment": "Antimicrobial activity against Staphylococcus aureus ATCC 29213 assessed as microbial growth inhibition in presence of (HCO3)- by susceptibility testing method", "format": "functional"}, "Staphylococcus aureus [16]": {"system": "Staphylococcus aureus", "experiment": "Antimicrobial activity against Staphylococcus aureus ATCC 29213 assessed as microbial growth inhibition at pH 7.4 by susceptibility testing method", "format": "functional"}, "Staphylococcus aureus [17]": {"system": "Staphylococcus aureus", "experiment": "Antimicrobial activity against Staphylococcus aureus ATCC 29213 assessed as microbial growth inhibition at pH 5 by susceptibility testing method", "format": "functional"}, "Macrococcus caseolyticus": {"system": "Macrococcus caseolyticus", "experiment": "Antimicrobial activity against Macrococcus caseolyticus assessed as microbial growth inhibition in presence of Ca2+ by susceptibility testing method", "format": "functional, organism-based", "settings": "Macrococcoides caseolyticum"}, "Escherichia coli [18]": {"system": "Escherichia coli", "experiment": "Antimicrobial activity against Escherichia coli expressing delta-tolC/KanR assessed as microbial growth inhibition in presence of Ca2+ by susceptibility testing method", "format": "functional, organism-based"}, "Lipid bilayer [19]": {"system": "Lipid bilayer", "experiment": "Induction of pore formation in cationic DOPC/DOTAP lipid bilayer membrane model at 1 to 100 ug/ml", "settings": "dose 1-100 µg/ml"}, "Staphylococcus aureus [20]": {"system": "Staphylococcus aureus", "experiment": "Antimicrobial activity against Staphylococcus aureus ATCC 29213 assessed as microbial growth inhibition in presence of Mg2+ by susceptibility testing method", "format": "functional"}, "Lipid bilayer [21]": {"system": "Lipid bilayer", "experiment": "Induction of pore formation in anionic TOCL lipid bilayer membrane model at 1 to 100 ug/ml in presence of CaCl2", "settings": "dose 1-100 µg/ml"}, "Staphylococcus aureus [22]": {"system": "Staphylococcus aureus", "experiment": "Antimicrobial activity against Staphylococcus aureus ATCC 29213 assessed as microbial growth inhibition in presence of (H2PO4)-/(HPO4)2- by susceptibility testing method", "format": "functional"}, "Micrococcus luteus": {"system": "Micrococcus luteus", "experiment": "Antimicrobial activity against Micrococcus luteus assessed as microbial growth inhibition in presence of Ca2+ by susceptibility testing method", "format": "functional, organism-based"}, "Lipid bilayer [23]": {"system": "Lipid bilayer", "experiment": "Induction of pore formation in anionic TOCL lipid bilayer membrane model at 1 to 100 ug/ml", "settings": "dose 1-100 µg/ml"}, "Staphylococcus aureus [24]": {"system": "Staphylococcus aureus", "experiment": "Antimicrobial activity against Staphylococcus aureus ATCC 29213 assessed as microbial growth inhibition in presence of Zn2+ by susceptibility testing method", "format": "functional"}, "Staphylococcus aureus [25]": {"system": "Staphylococcus aureus", "experiment": "Antimicrobial activity against Staphylococcus aureus ATCC 29213 assessed as microbial growth inhibition in presence of Ca2+ by susceptibility testing method", "format": "functional"}, "Staphylococcus aureus [26]": {"system": "Staphylococcus aureus", "experiment": "Antimicrobial activity against Staphylococcus aureus ATCC 29213 assessed as microbial growth inhibition at pH 6 by susceptibility testing method", "format": "functional"}, "Staphylococcus aureus [27]": {"system": "Staphylococcus aureus", "experiment": "Antimicrobial activity against Staphylococcus aureus ATCC 29213 assessed as microbial growth inhibition at pH 9 by susceptibility testing method", "format": "functional"}, "Lipid bilayer [28]": {"system": "Lipid bilayer", "experiment": "Induction of pore formation in anionic DOPC/DOPG lipid bilayer membrane model at 1 to 100 ug/ml", "settings": "dose 1-100 µg/ml"}, "Staphylococcus aureus [29]": {"system": "Staphylococcus aureus", "experiment": "Antimicrobial activity against Staphylococcus aureus ATCC 29213 assessed as microbial growth inhibition measured after 18 hrs by CLSI based broth microdilution method", "format": "functional"}, "Lipid bilayer [30]": {"system": "Lipid bilayer", "experiment": "Induction of pore formation in anionic TMoCL lipid bilayer membrane model assessed as pore-forming threshold concentration in presence of CaCl2"}, "Pseudomonas aeruginosa": {"system": "Pseudomonas aeruginosa", "experiment": "Antimicrobial activity against Pseudomonas aeruginosa assessed as microbial growth inhibition in presence of Ca2+ by susceptibility testing method", "format": "functional, organism-based"}, "Staphylococcus aureus [31]": {"system": "Staphylococcus aureus", "experiment": "Antimicrobial activity against Staphylococcus aureus ATCC 29213 assessed as microbial growth inhibition in presence of Cu2+ by susceptibility testing method", "format": "functional"}, "Staphylococcus aureus [32]": {"system": "Staphylococcus aureus", "experiment": "Antimicrobial activity against Staphylococcus aureus ATCC 29213 assessed as microbial growth inhibition at pH 8 by susceptibility testing method", "format": "functional"}, "Lipid bilayer [33]": {"system": "Lipid bilayer", "experiment": "Induction of pore formation in anionic DOPC/DOPG lipid bilayer membrane model at 1 to 100 ug/ml in presence of CaCl2", "settings": "dose 1-100 µg/ml"}, "Staphylococcus aureus [34]": {"system": "Staphylococcus aureus", "experiment": "Antimicrobial activity against Staphylococcus aureus ATCC 29213 assessed as microbial growth inhibition in presence of Na+ by susceptibility testing method", "format": "functional"}, "Staphylococcus aureus [35]": {"system": "Staphylococcus aureus", "experiment": "Antimicrobial activity against Staphylococcus aureus ATCC 29213 assessed as microbial growth inhibition in presence of Fe3+ by susceptibility testing method", "format": "functional"}, "Staphylococcus aureus [36]": {"system": "Staphylococcus aureus", "experiment": "Antimicrobial activity against Staphylococcus aureus ATCC 29213 assessed as microbial growth inhibition in presence of (B4O7)2- by susceptibility testing method", "format": "functional"}}, "note": "Activity calls are given as the source filed them.", "data": [{"smiles": "CC(C)/C=C/C=C\\C(=O)NCCC(=O)N[C@@H](CCCN)C(=O)NC(CC(O)c1ccccc1)C(=O)NC(C(=O)N[C@@H](Cc1ccc(OC2OC[C@H](O)[C@H](O)[C@H]2O)cc1)C(=O)NC1C(=O)N[C@H](CC(C)C)C(=O)N[C@@H](CC(=O)O)C(=O)NCC(=O)N[C@@H](CO)C(=O)NCC(=O)N[C@@H](CC(=O)c2ccc(Cl)cc2N)C(=O)N[C@@H](C)C(=O)N2CCC[C@H]2C(=O)NC1C)C(O)CC(=O)O", "note": "(stereo not given in full)", "values": [{"measurement": "Activity", "setting": "Lipid bilayer [1]", "value": 10, "unit": "µg/mL"}, {"measurement": "Activity", "setting": "Staphylococcus aureus [2]", "value": "inactive"}, {"measurement": "Activity", "setting": "Lipid bilayer [3]", "value": "Active"}, {"measurement": "MIC", "setting": "Staphylococcus aureus [4]", "value": 2, "unit": "µg/mL"}, {"measurement": "Activity", "setting": "Lipid bilayer [5]", "value": "inactive"}, {"measurement": "inhibition", "setting": "Bacillus cereus", "value": "Active"}, {"measurement": "inhibition", "setting": "Escherichia coli [6]", "value": "inactive"}, {"measurement": "MIC", "setting": "Staphylococcus aureus [7]", "value": 2, "unit": "µg/mL"}, {"measurement": "Activity", "setting": "Lipid bilayer [8]", "value": "Active"}, {"measurement": "MIC", "setting": "Staphylococcus aureus [9]", "value": 1, "unit": "µg/mL"}, {"measurement": "Activity", "setting": "Lipid bilayer [10]", "value": "Active"}, {"measurement": "MIC", "setting": "Staphylococcus aureus [11]", "value": 1, "unit": "µg/mL"}, {"measurement": "Activity", "setting": "Lipid bilayer [12]", "value": "Active"}, {"measurement": "MIC", "setting": "Staphylococcus aureus [13]", "value": 0.25, "unit": "µg/mL"}, {"measurement": "MIC", "setting": "Staphylococcus aureus [14]", "value": 1, "unit": "µg/mL"}, {"measurement": "MIC", "setting": "Staphylococcus aureus [15]", "value": 0.5, "unit": "µg/mL"}, {"measurement": "MIC", "setting": "Staphylococcus aureus [16]", "value": 1, "unit": "µg/mL"}, {"measurement": "MIC", "setting": "Staphylococcus aureus [17]", "value": 4, "unit": "µg/mL"}, {"measurement": "inhibition", "setting": "Macrococcus caseolyticus", "value": "Active"}, {"measurement": "inhibition", "setting": "Escherichia coli [18]", "value": "inactive"}, {"measurement": "Activity", "setting": "Lipid bilayer [19]", "value": "Active"}, {"measurement": "MIC", "setting": "Staphylococcus aureus [20]", "value": 1, "unit": "µg/mL"}, {"measurement": "Activity", "setting": "Lipid bilayer [21]", "value": "Active"}, {"measurement": "MIC", "setting": "Staphylococcus aureus [22]", "value": 4, "unit": "µg/mL"}, {"measurement": "inhibition", "setting": "Micrococcus luteus", "value": "Active"}, {"measurement": "Activity", "setting": "Lipid bilayer [23]", "value": "Active"}, {"measurement": "MIC", "setting": "Staphylococcus aureus [24]", "value": 1, "unit": "µg/mL"}, {"measurement": "MIC", "setting": "Staphylococcus aureus [25]", "value": 0.125, "unit": "µg/mL"}, {"measurement": "MIC", "setting": "Staphylococcus aureus [26]", "value": 4, "unit": "µg/mL"}, {"measurement": "MIC", "setting": "Staphylococcus aureus [27]", "value": 0.5, "unit": "µg/mL"}, {"measurement": "Activity", "setting": "Lipid bilayer [28]", "value": "Active"}, {"measurement": "MIC", "setting": "Staphylococcus aureus [29]", "value": 1, "unit": "µg/mL"}, {"measurement": "Activity", "setting": "Lipid bilayer [30]", "value": 7, "unit": "µg/mL"}, {"measurement": "inhibition", "setting": "Pseudomonas aeruginosa", "value": "inactive"}, {"measurement": "MIC", "setting": "Staphylococcus aureus [31]", "value": 1, "unit": "µg/mL"}, {"measurement": "MIC", "setting": "Staphylococcus aureus [32]", "value": 1, "unit": "µg/mL"}, {"measurement": "Activity", "setting": "Lipid bilayer [33]", "value": "Active"}, {"measurement": "MIC", "setting": "Staphylococcus aureus [34]", "value": 1, "unit": "µg/mL"}, {"measurement": "MIC", "setting": "Staphylococcus aureus [35]", "value": 1, "unit": "µg/mL"}, {"measurement": "MIC", "setting": "Staphylococcus aureus [36]", "value": 1, "unit": "µg/mL"}]}]}
